In patent US11179348B2, “Combination comprising pterostilbene for the treatment of cancer” (FUNDACIÓN UNIVERSIDAD CATÓLICA DE VALENCIA SAN VICENTE …, priority 2015, dated 2021):
Marks after values point to notes of the source that are not given here.

Experiments:
[1] = system: SK-OV-3 epithelial ovarian carcinoma; assay: In vivo growth of SK-OV-3 ovarian cancer xenografts; set-up: species or system human; settings: SK-OV-3, day 49
A2058 melanoma cells = assay: Nrf2- and redox state-related enzyme activities and metabolites in A2058 cells growing in vivo; set-up: species or system human; settings: A2058, in vivo +Pter, day 35
Description: (§1) Transfection of the Red Fluorescence Protein.
(§2) First the pDsRed-2 vector (Clontech Laboratories Inc., Palo Alto, Calif.) was used, as previously described for A375 melanoma cells (Mena, S. et al. J Transl Med 10, 8 (2012)), to engineer A2058, MeWo and MelJuso melanoma clones stably expressing the RFP. Isolation of A2058-RFP, MeWo-RFP or MelJuso-RFP cells from the growing xenografts was performed by laser microdissection and high-performance cell sorting as previously described in detail (Mena, S. et al. J Transl Med 10, 8 (2012)).
(§3) To measure enzyme activity, isolated tumor cells were homogenized in 0.1 M phosphate buffer (pH 7.2) at 4° C. GCL and GSS activities were measured as described previously (Obrador, E. et al. Hepatology 35, 74-81 (2002)). GPX (selenium dependent) activity was measured as described by Flohé and Gunzler (Flohe, L. & Gunzler, W. A. Methods Enzymol 105, 114-121 (1984)) using H2O2 as a substrate. GSR activity was determined as described by Akerboom and Sies (Akerboom, T. P. et al, Bull Eur Physiopathol Respir 17 Suppl, 221-227 (1981)). GGT activity was measured as described previously (Obrador, E. et al. Hepatology 35, 74-81 (2002)). GST activity was measured using an assay kit from Sigma. TXNRD activity, defined by the concentration of sodium-lipoate (disulfide) reduced to dehydrolipoate (dithiol) per milligram protein, was measured as previously described (Javvadi, P. et al. Cancer Res 70, 1941-1950 (2010)). SOD activity was measured as described by Flohé and Otting (Flohe, L. & Otting, F. Methods Enzymol 105, 93-104 (1984).) using 2 mM cyanide in the assay medium to distinguish mangano-type enzyme (SOD2) from the cuprozinc type (SOD1). CAT activity was analyzed as described by Aebi (Aebi, H. Methods Enzymol 105, 121-126 (1984)). NOX activity was measured by chemiluminescence following the methodology of Wind et al. (Wind, S. et al. Comparative pharmacology of chemically distinct NADPH oxidase inhibitors. Br J Pharmacol 161, 885-898 (2010)). Protein concentration was determined with the Pierce BCA protein assay (Fisher Scientific, Waltham, Mass.).
(§4) Measurement of H2O2 and O2^⋅−.
(§5) Quantitative measurement of H2O2 and flow cytometry determination of O2^⋅− generation were performed as previously described (Benlloch, M. et al. J Biol Chem 281, 69-79 (2006)).
(§6) GSH, GSSG, NADP^+ and NADPH Determination.
(§7) GSH and GSSG were determined, following procedures previously described (Obrador, E. et al. PLoS One 9, e96466 (2014)), by LC/MS using the same equipment described above for pterostilbene determination. Cell processing was performed according to published methodology, where rapid N-ethylmaleimide derivatization was used to prevent GSH auto-oxidation (Asensi, M. et al. Anal Biochem 217, 323-328 (1994)). NADP^+ and NADPH were quantitated using an assay kit from Sigma (St. Louis, Mo.).

MeWo melanoma cells = assay: Nrf2- and redox state-related enzyme activities and metabolites in MeWo cells growing in vivo; set-up: species or system human; settings: in vivo +Pter, day 35
Description: as §1, §2, §3, §4, §5, §6, §7

BxPC-3 cells = assay: Effect of Pter on BxPC-3 cell growth or viability in vitro; format: cell-based, human; settings: 15 μM Pter×60 min every 24 h
Description: FIG. 11. In vivo effect of Pter on human pancreatic cancer growth. […] For the doses of 20 and 40 mg Pter/kg only the point at the end of the treatment period is shown.
Human A2058, MeWo and MelJuso melanoma cells, and mouse AtT-20 pituitary corticotroph tumor cells were from the American Type Culture Collection (ATCC). Human HEMa-LP epidermal melanocytes were from Life Technologies (Grand Island, N.Y.). Human MDA-MB-231 (triple negative: ER−, PR−, HER2−) and MCF-7 (ER+, PR+, HER2−) breast adenocarcinoma, A549 lung adenocarcinoma (NSCLC), HepG2 hepatocellular carcinoma, LNCaP (AR+) and PC-3 (AR−) prostate adenocarcinoma, SK-OV-3 epithelial ovarian carcinoma, and HT-29 and Caco-2 colorectal carcinoma cells were from the American Type Culture Collection. Cells were grown in Dulbecco's modified Eagle's medium (DMEM) (Invitrogen, San Diego, Calif.), pH 7.4, supplemented with 10% heat-inactivated FCS (Biochrom KG, Berlin, Germany), 100 units/ml penicillin and 100 μg/ml streptomycin. Cells were plated, at a density of 20,000 cells/cm2, and cultured at 37° C. in a humidified atmosphere with 5% CO2. […] Cell numbers were determined using a Coulter Counter (Coulter Electronic Inc., Miami, Fla.). […] Cellular viability was assessed as previously reported (Mena, S. et al. Clin Cancer Res 13, 2658-2666 (2007)), by measuring trypan blue exclusion and leakage of lactate dehydrogenase activity.

COc1cc(/C=C/c2ccc(O)cc2)cc(OC)c1 [Pter, trans-3,5-dimethoxy-4′-hydroxystilbene]
Tumor vol. [1]: 214 ± 83* mm^3 | CAT (A2058 melanoma cells): 1.7 ± 0.3 mU/10^6 cells | G6PDH (A2058 melanoma cells): 305 ± 78 mU/10^6 cells | GCL (A2058 melanoma cells): 58 ± 17 mU/10^6 cells | GGT (A2058 melanoma cells): 19.6 ± 2.7 mU/10^6 cells | GPX (A2058 melanoma cells): 3.9 ± 1.1 mU/10^6 cells | GSH (A2058 melanoma cells): 10.5 ± 2.1 nmol/10^6 cells | GSH/GSSG (A2058 melanoma cells): 35 ± 5 | GSR (A2058 melanoma cells): 6.1 ± 1.6 mU/10^6 cells | GSS (A2058 melanoma cells): 8.5 ± 2.0 mU/10^6 cells | GSSG (A2058 melanoma cells): 0.3 ± 0.1 nmol/10^6 cells | GST (A2058 melanoma cells): 7.5 ± 1.3 mU/10^6 cells | H2O2 (A2058 melanoma cells): 0.7 ± 0.2 nmol/10^6 cells × min | IDH (A2058 melanoma cells): 1.2 ± 0.4 U/10^6 cells | ME (A2058 melanoma cells): 43 ± 12 mU/10^6 cells | NADPH (A2058 melanoma cells): 0.06 ± 0.02 nmol/mg prot | NADPH/NADP^+ (A2058 melanoma cells): 1.2 ± 0.3 | NADP^+ (A2058 melanoma cells): 0.05 ± 0.01 nmol/mg prot | NOX (A2058 melanoma cells): 177 ± 4.5 R.L.U./10^6 cells | O2^− (A2058 melanoma cells): 3.9 ± 0.6 ΔFL1, a.u. | SOD1 (A2058 melanoma cells): 0.6 ± 0.2 U/10^6 cells | SOD2 (A2058 melanoma cells): 0.1 ± 0.05 U/10^6 cells | TXN (A2058 melanoma cells): 0.5 ± 0.1 μg/10^6 cells | TXNRD (A2058 melanoma cells): 0.7 ± 0.2 U/10^6 cells | CAT (MeWo melanoma cells): 1.6 ± 0.4 mU/10^6 cells | G6PDH (MeWo melanoma cells): 266 ± 39 mU/10^6 cells | GCL (MeWo melanoma cells): 35 ± 12 mU/10^6 cells | GGT (MeWo melanoma cells): 16.0 ± 2.4 mU/10^6 cells | GPX (MeWo melanoma cells): 2.8 ± 1.0 mU/10^6 cells | GSH (MeWo melanoma cells): 7.3 ± 1.7 nmol/10^6 cells | GSH/GSSG (MeWo melanoma cells): 73 ± 11 | GSR (MeWo melanoma cells): 4.9 ± 1.2 mU/10^6 cells | GSS (MeWo melanoma cells): 7.4 ± 1.6 mU/10^6 cells | GSSG (MeWo melanoma cells): 0.1 ± 0.03 nmol/10^6 cells | GST (MeWo melanoma cells): 6.5 ± 1.3 mU/10^6 cells | H2O2 (MeWo melanoma cells): 0.7 ± 0.2 nmol/10^6 cells × min | IDH (MeWo melanoma cells): 1.5 ± 0.4 U/10^6 cells | ME (MeWo melanoma cells): 32 ± 11 mU/10^6 cells | NADPH (MeWo melanoma cells): 0.05 ± 0.002 nmol/mg prot | NADPH/NADP^+ (MeWo melanoma cells): 1.2 ± 0.2 | NADP^+ (MeWo melanoma cells): 0.04 ± 0.01 nmol/mg prot | NOX (MeWo melanoma cells): 132 ± 25 R.L.U./10^6 cells | O2^− (MeWo melanoma cells): 3.5 ± 0.7 ΔFL1, a.u. | SOD1 (MeWo melanoma cells): 0.5 ± 0.2 U/10^6 cells | SOD2 (MeWo melanoma cells): 0.1 ± 0.05 U/10^6 cells | TXN (MeWo melanoma cells): 0.8 ± 0.2 μg/10^6 cells | TXNRD (MeWo melanoma cells): 0.9 ± 0.2 U/10^6 cells | cell growth or viability in vitro (BxPC-3 cells): did not affect
